{
  "source": "patent US6538037B2",
  "about": "“Methods for preparation and use of 1α,24(S)-dihydroxyvitamin D2” (Bone Care International, Inc., priority 1991, dated 2003)",
  "key": {"[1]": {"test": "Dermatological testing, topical treatment of dermatitis", "format": "in vivo, human", "conditions": "ointment 10 μg per gram, twice daily", "description": "Compositions containing 1α,24(S)-dihydroxyvitamin D2 are evaluated for therapeutic efficacy of the composition in the topical treatment of dermatitis (contact and ectopic). The composition evaluated is an ointment containing 10 μg of 1α,24-dihydroxyvitamin D2 per gram of ointment in a petrolatum-almond oil base. […] The patients are treated in an out-patient clinic. They are instructed to use the preparation two times a day.\nThe ointment is as far as possible applied to a single lesion, or to an area of the disease. The ointment and its container are weighed before the treatment starts and returned with any unused contents for reweighing at the end of the treatment.\nThe area of the lesion treated is estimated and recorded, and the lesion is photographed as required, together with suitable “control” lesions. The latter are preferably lesions of similar size and stage of development, either in the vicinity of the treated lesion or symmetrically contralateral. Relevant details of the photographic procedure are recorded so as to be reproduced when the lesions are next photographed (distance, aperture, angle, background, etc.). The ointment is applied twice daily and preferably left uncovered. The “control” lesions are left untreated, but if this is not possible, the treatment used on them is noted. […]"}, "Hep 3B cells": {"tested_on": "Hep 3B cells", "test": "Metabolism of 1α-OH-D2 in Hep 3B cells", "format": "in vitro ADME, human", "conditions": "photodiode array spectrophotometry", "description": "Substantially pure 1α-(OH)D2 was obtained from Bone Care International, Inc. of Madison, Wis. The 1α-(OH)D2 was cultured for 48 hours with cells derived from a human hepatoma, Hep 3B, in medium devoid of fetal calf serum using known methods in the art.\nLipid extracts of the combined medium and cells were generated by known methods in the art and were subjected to high pressure liquid chromatography (HPLC) on Zorbax-S1L developed with hexane/isopropano/methanol (91:7:2). The putative 1α,24(?)-(OH)2D2 metabolite eluted between the parent 1α-(OH)D2 and standard 1α,25-(OH)2D2 (also obtained from Bone Care International, Inc. of Madison, Wis.). (As used herein, the term “1α,24(?)-(OH)2D2” is meant to indicate that the epimeric form has not been identified.) The 1α,24(?)-(OH)2D2 was further purified by this HPLC system before the metabolite's identification was undertaken using mass spectrometry analysis.\nHep 3B cells were incubated with 1α-OH-D2, as described above, at final concentrations of 1, 10, or 100 nM (Experiment 1), and 1 or 10 μM (Experiment 2) and 1α,24(S)-(OH)2D2 was extracted and purified. The 1α,24(S)-(OH)2D2 and 1α,25-(OH)2D2 metabolites were quantitated by recovered radiolabel (Experiment 1) or by photodiode array spectrophotometry (Experiment 2)."}, "[2]": {"test": "Dose ranging study in postmenopausal osteoporotic women", "format": "in vivo, human", "conditions": "oral 0.5 to 8.0 μg/day, five weeks", "description": "Twenty postmenopausal osteoporotic women are enrolled in an open label study.\nIn admission to the study, all patients receive instruction on selecting a daily diet containing 400 to 600 mg of calcium. Compliance to this diet is verified at weekly intervals by 24-hour food records and by interviews with each patient.\nAll patients complete a one-week baseline period, a five-week treatment period, and a one-week post-treatment observation period. During the treatment period, patients orally self-administer 1α,24(S)-dihydroxyvitamin D2 at an initial dose of 0.5 μg/day for the first week, and at successively higher doses of 1.0, 2.0, 4.0, and 8.0 μg/day in each of the following four weeks. All doses are administered before breakfast.\nBlood and urine chemistries are monitored on a weekly basis throughout the study. Key blood chemistries include fasting serum levels of calcium, phosphorus, osteocalcin, creatinine, and blood urea nitrogen. Key urine chemistries include 24-hour excretion of calcium, phosphorus, and creatinine."}, "HL-60 promyelocytes": {"tested_on": "HL-60 promyelocytes", "test": "HL-60 cell differentiation assay", "format": "cell-based", "conditions": "dose-response study", "description": "A dose-response study is conducted with 1α,24(S)-(OH)2D2 in the HL-60 cell differentiation assay as described by DeLuca and Ostrom (DeLuca, H. F. and Ostrem, V. K., Prog. Clin. Biol. Res., vol. 259, pp. 41-55 (1988)). In this study, 1α,25-(OH)2D3 is used as a positive control and appropriate solvents are used as negative controls. The following variables are evaluated: nonspecific acid esterase activity, nitroblue tetrazolium (NBT) reduction, and thymidine incorporation."}, "Human keratinocytes": {"tested_on": "Human keratinocytes", "test": "Epidermal cell differentiation and proliferation testing", "format": "cell-based", "conditions": "0.05 to 5 μg/ml, versus control cultures", "description": "Human keratinocytes are cultured according to known modifications of the system originally described by Rheinwald and Green (Cell, vol.6, p.331 (1975)). The 1α,24(S)-dihydroxyvitamin D2, dissolved in ethanol, is added to cells to yield a variety of concentrations between 0.05 and 5 μg/ml with the ethanol concentration not to exceed 0.5% v/v. Control cultures are supplemented with ethanol at a final concentration of 0.5% v/v. Differentiation and proliferation of epidermal cells in culture is examined by:\n1. quantitation of cornified envelopes;\n2. quantitation of cell density of cells attached to disks;\n3. monitoring transglutaminase activity; or\n4. monitoring DNA synthesis by incorporation of ^3H-thymidine."}, "vitamin D receptor (VDR)": {"tested_on": "vitamin D receptor (VDR)", "test": "Vitamin D-inducible growth hormone production in transfected COS-1 cells", "format": "cell-based, Green monkey", "conditions": "for Total GH Production: averages of duplicate determinations", "description": "The biological activity in vitro of chemically synthesized 1α,24(S)-(OH)2D2 and 1α,24(R)-(OH)2D2 was measured using a vitamin D-dependent transcriptional activation model system in which a vitamin D receptor (VDR)-expressing plasmid pSG5-hVDR1/3 and a plasmid p(CT4)^4TKGH containing a Growth Hormone (GH)-gene, under the control of a vitamin D-responsive element (VDRE) were co-transfected into Green monkey kidney, COS-1 cells. DNA's for these two vectors were supplied by Dr. Mark Haussler, Department of Biochemistry, University of Arizona, Tucson, Ariz.\nTransfected cells were incubated with vitamin D metabolites and growth hormone production was measured."}},
  "data": [
    {"smiles": "C=C1/C(=C\\C=C2/CCC[C@]3(C)[C@@H]([C@H](C)/C=C/[C@@](C)(O)C(C)C)CC[C@@H]23)C[C@@H](O)C[C@@H]1O", "note": "[1α,24(S)-(OH)2D2, 1α,24(S)-dihydroxyvitamin D2]", "values": [
      {"measurement": "incidence of hypercalcemia", "setting": "[1]", "value": "insignificant incidence of hypercalcemia"},
      {"measurement": "lesion severity scores (erythema, scaling, thickness; 0 to 3)", "setting": "[1]; four to six weeks", "value": "lower scores than the control lesions"},
      {"measurement": "Rate of Production", "setting": "Hep 3B cells; Experiment 2, substrate 1α-OH-D2 1 μM", "value": 4.9, "unit": "pmol per 10^6 cells/day"},
      {"measurement": "Rate of Production", "setting": "Hep 3B cells; Experiment 2, substrate 1α-OH-D2 10 μM", "value": 59, "unit": "pmol per 10^6 cells/day"},
      {"measurement": "24-hour urinary calcium levels", "setting": "[2]", "value": "modest increases in 24-hour urinary calcium levels"},
      {"measurement": "kidney function (creatinine clearance, blood urea nitrogen)", "setting": "[2]", "value": "does not adversely affect kidney function"},
      {"measurement": "routinely monitored serum parameters", "setting": "[2]", "value": "no effect on any routinely monitored serum parameters"},
      {"measurement": "serum osteocalcin levels", "setting": "[2]", "value": "increases in serum osteocalcin levels"},
      {"measurement": "urinary excretion of hydroxyproline", "setting": "[2]", "value": "nor does it increase urinary excretion of hydroxyproline"},
      {"measurement": "differentiation of HL-60 promyelocytes to monocytes", "setting": "HL-60 promyelocytes", "value": "potent activity in promoting differentiation"},
      {"measurement": "DNA synthesis by incorporation of 3H-thymidine", "setting": "Human keratinocytes", "value": "lower DNA synthesis"},
      {"measurement": "cell density of cells attached to disks", "setting": "Human keratinocytes", "value": "fewer attached cells"},
      {"measurement": "cornified envelopes", "setting": "Human keratinocytes", "value": "more cornified envelopes"},
      {"measurement": "transglutaminase activity", "setting": "Human keratinocytes", "value": "higher transglutaminase activity"},
      {"measurement": "Net vitamin D-inducible GH-production", "setting": "vitamin D receptor (VDR); inducer 5 × 10^−9 M", "value": 1306, "unit": "ng/mL"},
      {"measurement": "Total GH Production", "setting": "vitamin D receptor (VDR); inducer 5 × 10^−9 M", "value": 1350, "unit": "ng/mL"},
      {"measurement": "Net vitamin D-inducible GH-production", "setting": "vitamin D receptor (VDR); inducer 5 × 10^−10 M", "value": 381, "unit": "ng/mL"},
      {"measurement": "Total GH Production", "setting": "vitamin D receptor (VDR); inducer 5 × 10^−10 M", "value": 425, "unit": "ng/mL"}
    ]}
  ]
}
